Paper PMC8163216, “Macrocycle synthesis strategy based on step-wise “adding and reacting” three components enables screening of large combinatorial libraries” (Chemical Science, 2020)
Values belong to the compound of their own block, whether it stands above or below them.

What was measured:
[1] = One-pot thiol-to-amine (S-to-N) bis-alkylation/conjugate addition/SNAr: Cys thiol and N-terminal secondary benzylamine (peptoid-type) bridged by bis-electrophile linkers 1-6 (8 equiv, 800 uM) after TCEP removal of the S-SO3H group (TCEP 400 uM, excess benzylamine 1.6 mM present); settings: the molecule shown is the open-chain precursor, 60 mM aq NH4HCO3 pH 8 with about 5% DMSO, 0.1 mM, 37.0 °C, 3 steps, scale: %
human thrombin = molecular target: T1, human thrombin (Homo sapiens, UniProt P00734); assay: Determination of the inhibitory constants of purified macrocycles (thrombin, fluorogenic substrate Z-Gly-Gly-Arg-AMC); assay type: biochemical; settings: for Ki: purified macrocycle, 2 nM thrombin, 50 μM Z-Gly-Gly-Arg-AMC, Ki from IC50 by Cheng-Prusoff
T1 construct: consists of two polypeptide chains of 259 (H-chain) and 37 amino acid residues; purchased Molecular Innovations
Description: Determination of the inhibitory constants of macrocycles
The IC50s of macrocycles were determined by measuring the residual activity of thrombin at different dilutions of macrocycle using a fluorogenic substrate. The reactions were performed in a volume of 150 µl in 96-well plates. A volume of 50 µl of 2-fold dilutions of macrocycle in assay buffer (10 mM Tris-Cl [pH 7.4], 150 mM NaCl, 10 mM MgCl2, 1 mM CaCl2, 0.1% w/v BSA, 0.01% v/v Triton-X100) were pipetted to the wells. A volume of 50 µl of thrombin (6 nM) in assay buffer was added to each well to reach a final concentration of 2 nM and was incubated for 15 min. A volume of 50 µl of the fluorogenic substrate Z-Gly-Gly-Arg-AMC (150 µM) in assay buffer containing 3% DMSO was added to reach a final substrate concentration of 50 µM and 1% DMSO. Fluorescence intensity was measured for 30 min using an Infinite M200Pro plate reader (Tecan; excitation at 368 nm, emission at 467 nm) with a read every minute.
Sigmoidal curves were fitted to the data using Prism 5 (GraphPad software) and the following dose- […]
wherein x is macrocycle concentration, y is % protease activity, and p is Hill slope. IC50 values were derived […]
The inhibitory constants (Ki) were calculated using the following equation of Cheng and Prusoff: […]
wherein IC50 is the functional strength of the inhibitor, [S]0 is the total substrate concentration, and Km is the Michaelis-Menten constant. The Km for thrombin and the substrate Z-Gly-Gly-Arg-AMC was determined to […]

[2] = system: panel of nine human proteases; assay: Determination of target specificity against a panel of trypsin-like serine proteases; assay type: biochemical; settings: panel of nine human proteases structurally and functionally most similar to thrombin
Description: (§1) Determination of target specificity
(§2) The specificity was profiled by testing the inhibition of a panel of trypsin-like serine proteases using fluorogenic or chromogenic substrates. Dilutions of macrocycle were prepared ranging from 40 µM to 40 nM for all proteases except for thrombin (1 µM to 1 nM). The following final concentrations of human proteases were used: 2 nM thrombin (Molecular Innovations), 0.6 nM activated protein C (APC, Molecular Innovations), 1.5 nM uPA (Molecular Innovations), 0.25 nM plasma kallikrein (Innovative Research), 1 nM factor XIa (Innovative Research), 7.5 nM tPA (Molecular Innovations), 0.1 nM trypsin (Molecular Innovations), 3 nM factor XIIa (Molecular Innovations), and 2.5 nM plasmin (Molecular Innovations). […]
(§3) A volume of 50 µl of the substrate in assay buffer containing 3% DMSO was added. Fluorescence intensity was measured for 30 min using an Infinite M200Pro plate reader (Tecan; excitation at 368 nm, emission at 467 nm) with a read every minute. For APC protease, absorption was measured at 405 nm with the same plate reader for a period of 30 min with a read every minute. […] The inhibitory constants were calculated as described above. […]
(§4) Coagulation times were determined in human plasma using a STAGO STart4 coagulation analyzer (Diagnostica). […]
(§5) ball stopped moving was recorded as coagulation time. […]

human plasma [3] = assay: Activated partial thromboplastin time (aPTT), intrinsic coagulation pathway, in human plasma; assay type: biochemical; settings: EC2× = concentration for 2-fold increase in coagulation time
Description: as §1, §2, §3, §4, §5

human plasma [4] = assay: Prothrombin time (PT), extrinsic coagulation pathway, in human plasma; assay type: biochemical; settings: EC2× = concentration for 2-fold increase in coagulation time
Description: as §1, §2, §3, §4, §5

SMILES: C=CS(=O)(=O)CCSC[C@H](NC(=O)CNC(=O)CNCc1ccccc1)C(=O)NCC(=O)N[C@@H](Cc1c[nH]c2ccccc12)C(N)=O [Bn-NH-CH2CO-Gly-Cys(SH)-Gly-Trp-NH2]
ring closure, conversion by HPLC ([1]; 15-membered ring): 93

SMILES: C=CS(=O)(=O)CS(=O)(=O)CCSC[C@H](NC(=O)CNC(=O)CNCc1ccccc1)C(=O)NCC(=O)N[C@@H](Cc1c[nH]c2ccccc12)C(N)=O [Bn-NH-CH2CO-Gly-Cys(SH)-Gly-Trp-NH2]
ring closure, conversion by HPLC ([1]; 17-membered ring): 41

SMILES: NC(=O)[C@H](Cc1c[nH]c2ccccc12)NC(=O)CNC(=O)[C@H](CSCc1ccc(CBr)cc1)NC(=O)CNC(=O)CNCc1ccccc1 [Bn-NH-CH2CO-Gly-Cys(SH)-Gly-Trp-NH2]
ring closure, conversion by HPLC ([1]; 16-membered ring): 18

SMILES: NC(=O)[C@H](Cc1c[nH]c2ccccc12)NC(=O)CNC(=O)[C@H](CSCc1cccc(CBr)n1)NC(=O)CNC(=O)CNCc1ccccc1 [Bn-NH-CH2CO-Gly-Cys(SH)-Gly-Trp-NH2]
ring closure, conversion by HPLC ([1]; 15-membered ring): 86

SMILES: NC(=O)[C@H](Cc1c[nH]c2ccccc12)NC(=O)CNC(=O)[C@H](CSCc1ccccc1CBr)NC(=O)CNC(=O)CNCc1ccccc1 [Bn-NH-CH2CO-Gly-Cys(SH)-Gly-Trp-NH2]
ring closure, conversion by HPLC ([1]; 14-membered ring): 32

SMILES: NC(=O)[C@H](Cc1c[nH]c2ccccc12)NC(=O)CNC(=O)[C@H](CSc1ncnc(Cl)n1)NC(=O)CNC(=O)CNCc1ccccc1 [Bn-NH-CH2CO-Gly-Cys(SH)-Gly-Trp-NH2]
ring closure, conversion by HPLC ([1]; 13-membered ring): 67

Ki (human thrombin): 59 ± 6 nM
SMILES: N=C(N)NCCCC1NC(=O)CC2CCCN2C(=O)CN(Cc2ccccc2CO)Cc2ccccc2CSCC(C(N)=O)NC1=O (centres unmarked) [macrocycle 7]

Ki (human thrombin): 10.6 ± 2 nM | fold improvement of Ki over parental macrocycle 7 (human thrombin; thrombin Ki relative to 7): 5.5 fold
SMILES: N=C(N)NCCC[C@@H]1NC(=O)C[C@H]2CCCN2C(=O)CN(Cc2ccco2)Cc2ccccc2CSC[C@@H](C(N)=O)NC1=O [macrocycle 57]
target selectivity [2]: high target selectivity | fold better aPTT EC2× than parent 7 (human plasma [3]): 1.4 fold | fold better PT EC2× than parent 7 (human plasma [4]): 1.9 fold

Ki (human thrombin): 95 ± 17 nM
SMILES: N=C(N)NCCC[C@@H]1NC(=O)C[C@H]2CCCN2C(=O)CN(Cc2ccccc2CO)Cc2ccccc2CSC[C@@H](C(N)=O)NC1=O [macrocycle 60]

Ki (human thrombin): 520 ± 110 nM
SMILES: N=C(N)NCCC[C@@H]1NC(=O)C[C@@H]2CCCN2C(=O)CN(Cc2ccco2)Cc2ccccc2CSC[C@@H](C(N)=O)NC1=O [macrocycle 61]
